BindingDB's records for patent US20250059185 (Hoffmann-La Roche, 2025)

Target: T1, Monoglyceride lipase (Homo sapiens, UniProt Q99685)
T1 sequence (Q99685 whole entry): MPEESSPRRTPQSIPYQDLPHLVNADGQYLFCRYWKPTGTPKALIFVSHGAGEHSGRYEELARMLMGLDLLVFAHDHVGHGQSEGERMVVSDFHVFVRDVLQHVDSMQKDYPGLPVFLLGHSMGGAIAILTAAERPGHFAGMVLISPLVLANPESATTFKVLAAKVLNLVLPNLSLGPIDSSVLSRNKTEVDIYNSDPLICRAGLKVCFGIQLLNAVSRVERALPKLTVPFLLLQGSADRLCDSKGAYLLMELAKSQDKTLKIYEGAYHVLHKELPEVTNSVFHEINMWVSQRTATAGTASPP
Experiment: MAGL Inhibitory Activity Assay
Method: MAGL inhibitory activity by determining the enzymatic activity by following the hydrolysis of the natural substrate 2-arachidonoylglycerol (2-AG) resulting in arachidonic acid, which can be followed by mass spectrometry. This assay is hereinafter abbreviated “2-AG assay”. The 2-AG assay was carried out in 384 well polypropylene assay plates. Compound dilutions were made in 100% DMSO in a polypropylene plate in 3-fold dilution steps to give a final concentration range in the assay from 12.5 μM to 0.8 pM. Compound dilutions were added to MAGL protein in assay buffer (50 mM TRIS, 1 mM EDTA, 0.01% (v/v) Tween-20, 2.5% (v/v) DMSO). After shaking, the plate was incubated for 15 min at RT. To start the reaction, 2-arachidonoylglycerol in assay buffer was added. The final concentrations in the assay was 50 pM for MAGL protein and […] 2-arachidonoylglyerol. After shaking and 30 min incubation at RT, the reaction was quenched by the addition of two assay volumes of acetonitrile containing 4 μM of d8-arachidonic acid. The amount of arachidonic acid formed was traced by an online SPE system (Agilent Rapidfire) coupled to a triple quadrupole mass spectrometer.

COc1cccc(C(=O)N2CCc3c(nn(C)c3-c3cc(Cl)cc(CC(N)=O)c3)[C@H]2C)c1Cl [US20250059185, Example 15] gave an IC50 of 152 nM.
